This is an account of results in patent publication US9150865B2 (priority 2010, dated 2015).

For assay [1], the system named is ADAM10. The following applies: cited from earlier work.
Assay [2] has as its target T1, ADAM10 (Homo sapiens, UniProt O14672). The assay is classed as cell-based.
For assay [3], the system named is S. aureus USA300/LAC. Also noted: species or system Staphylococcus aureus. The conditions noted are these: in vivo.
Assay [4] has as its target T1, ADAM10. Format: cell-based. This is another data set of the same source.
The test system of assay [5] is C57BL/6J mice. The following applies: mouse, in vivo.
Assay [6] deals with Human pulmonary artery endothelial cells (HPAECs). Format: cell-based.
Assay [7] has as its system rabbit red cells. Format: cell-based.
Assay [8] concerns the target T1, ADAM10. The assay is classed as cell-based. The source holds these as a separate data set.
Assay [9] concerns the target T1, ADAM10. Format: cell-based. This is another data set of the same source.
Assay [10] relates to S. aureus strain Newman. Also noted: species or system Staphylococcus aureus. The following applies: in vivo, ip.
In assay [11] the test system is A549 cells. Format: cell-based, human.
Assay [12] deals with S. aureus Newman. Also noted: species or system Staphylococcus aureus. The following applies: in vivo.
The target in assay [13] is T1, ADAM10. The assay is classed as cell-based. This is another data set of the same source.
For assay [14], the system named is BALB/c mice. The conditions noted are these: mouse, in vivo.
Assay [15] has as its system A431 keratinocytes. The assay is classed as cell-based.
In assay [16] the target is T1, ADAM10. Format: cell-based. The source holds these as a separate data set.

“Also recorded” adds a separate entry of the source.

T1 sequence (O14672 214-748 limits assumed): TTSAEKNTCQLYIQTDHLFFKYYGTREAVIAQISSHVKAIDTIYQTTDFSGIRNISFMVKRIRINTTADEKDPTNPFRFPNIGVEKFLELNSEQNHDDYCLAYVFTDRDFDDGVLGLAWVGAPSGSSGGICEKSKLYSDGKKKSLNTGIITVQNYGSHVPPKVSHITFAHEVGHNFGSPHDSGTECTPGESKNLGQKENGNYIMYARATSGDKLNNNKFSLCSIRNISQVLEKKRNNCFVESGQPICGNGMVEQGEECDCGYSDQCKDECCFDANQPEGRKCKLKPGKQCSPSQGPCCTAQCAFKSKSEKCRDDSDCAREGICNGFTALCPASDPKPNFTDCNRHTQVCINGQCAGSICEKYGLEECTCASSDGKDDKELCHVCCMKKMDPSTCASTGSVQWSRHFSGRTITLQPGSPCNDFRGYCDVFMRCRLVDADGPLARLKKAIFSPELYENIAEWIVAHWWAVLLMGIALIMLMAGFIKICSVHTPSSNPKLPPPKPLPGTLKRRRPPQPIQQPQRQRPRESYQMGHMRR

As to `C[C@H](CCC(=O)O)C[C@H](C)C[C@H](C)C(=O)/C=C(\O)[C@H](C)C[C@H](C)C/C=C/[C@@H](C)[C@@H](O)[C@@H](C)[C@@H](O)C[C@@H]1CC[C@@](C)([C@H]2CC[C@@](C)([C@@H](C)O)O2)O1` [Ionomycin], the “induction of ADAM10 metalloprotease activity” value in [1] is “potently induces the metalloprotease activity of ADAM10”. The “E-cadherin cleavage induced by agent alone” value in [2] is “stimulating E-cadherin cleavage; also recorded: E-cadherin CTFs were generated; also recorded: enhancing cleavage”.
`CNC(=O)[C@@H](NC(=O)[C@H](CCCc1ccccc1)[C@H](C)N(O)C=O)C(C)(C)C` [GI254023X]: in assay [3], the abscess size entry is reported as “reduction in abscess size”, the dermonecrotic skin lesions result was “did not demonstrate dermonecrotic skin lesions” and the “skin breakdown (dermonecrosis) over the site of infection” value was “completely prevented skin breakdown over the site of infection”. Moreover, the “Hla-induced loss of E-cadherin expression and disruption of cell junctions” value in [4] was “could be prevented; also recorded: is inhibited”. Also, in assay [5], the “accumulation of cells and proteinaceous edema in the alveolar space (BAL cell count, protein)” value was “reduced the accumulation of both cells and proteinaceous edema in the alveolar space; also recorded: reduced alveolar exudates; also recorded: prevents Hla-induced lung epithelial barrier disruption in vivo”. The “E-cadherin cleavage in response to Hla treatment in mice” value in assay [5] (ip) is given as “prevented E-cadherin cleavage in response to Hla treatment”. Besides, the “Hla-mediated barrier disruption (ECIS)” value in assay [6] is reported as “complete protection of HPAECs from Hla-mediated barrier disruption”. In addition, the Hla-induced hemolysis entry in [7] is recorded as “blunted hemolysis”. The “full-length E-cadherin expression upon toxin treatment” value in assay [8] is “preservation of full-length E-cadherin expression”. Also, in [9], the “PLY-induced E-cadherin cleavage” value is recorded as “prevented PLY-induced E-cadherin cleavage”. For the same compound, the “protection against lethal S. aureus pneumonia (mortality curves)” value in [10] is “protected from rapidly lethal S. aureus pneumonia, displaying an increase in time to death and survival among some animals; also recorded: protected against lethal pneumonia”. In addition, the “toxin binding and oligomerization on the surface of A549 cells” value in assay [11] was “markedly impaired toxin binding and subsequent oligomerization; also recorded: impaired toxin binding and oligomerization on A549 cells”. In assay [12], the “survival of lethal challenge” value is on record as “all experimental animals succumbed to the lethal challenge”. Besides, in assay [12] (200 mg/kg), the appearance of illness result is recorded as “less ill in appearance”. Also, the time-to-death entry in [12] (iv, 200 mg/kg) is listed as “prolongation of time-to-death”. Further, the “Hla-induced VE-cadherin cleavage” value in assay [13] is listed as “prevented VE-cadherin cleavage”. For the same compound, the “vascular integrity / Evans blue dye extravasation” value in [14] is reported as “enhanced vascular integrity, manifest by limited dye extravasation”. Also, the “Hla-induced E-cadherin cleavage” value in assay [2] was “nearly abrogated Hla-induced E-cadherin cleavage”. Moreover, the “epithelial barrier function upon toxin treatment (ECIS)” value in assay [15] is “preservation of full-length E-cadherin expression and epithelial barrier function”.
With Methyl-β-cyclodextrin, the Hla-induced metalloprotease activation entry in assay [16] was “abrogated metalloprotease activation”. Besides, the “Hla-induced E-cadherin cleavage” value in [2] was “abrogated metalloprotease activation and E-cadherin cleavage”.
With “N—(R)-[2-hydroxyaminocarbonyl)methyl]-4-methylpentanoyl-L-napthylalanyl-L-alanine, 2-aminoethyl amide [TAPI-1]”, in [6], the “barrier function after Hla (ECIS)” value is “maintenance of barrier function; also recorded: did not result in loss of barrier function”. Also, the “Hla-induced VE-cadherin cleavage” value in assay [13] is “prevented VE-cadherin cleavage”. In [2], the “Hla-induced E-cadherin cleavage (Western blot)” value was “impaired Hla-induced E-cadherin cleavage” and the “surface expression of E-cadherin after Hla (immunofluorescence)” value is recorded as “preserved surface expression of E-cadherin”.
